Measured values published in publication PMC6630718, “Discovery of Novel UV-Filters with Favorable Safety Profiles in the 5-Arylideneimidazolidine-2,4-dione Derivatives Group” (Molecules, 2019).

Assays:
[1] = Photostability in methanol solutions (solar light simulator); type: physicochemical; design: λmax pre-irradiation: unit not given beside the values; conditions: methanol solution; for % of initial AUC post-irradiation / λmax post-irradiation: 1h irradiation at 500 W/m2
Experimental: (§1) The photostability evaluation of compounds was performed both in methanol solutions and in macrogol formulations. Irradiation of samples according to previous studies was conducted for 1 h at 500 W/m^2 (cumulative dose of ultraviolet radiation 218 kJ/m^2) with solar light simulator (Suntest CPS+, Atlas, Linsengericht, Germany) equipped with an optical filter cutting off wavelengths shorter than 290 nm and IR-block filter to neutralize thermal effects. The UV absorption spectrum of the samples were analysed post-irradiation and compared with pre-irradiation results. UPLC-MS/MS analyses were also performed.
(§2) Methanol solutions were tested at concentration 25 or 50 µM in quartz cuvettes with the PTFE stopper to prevent evaporation or leaking of the solvent. Macrogol formulations (2% w/w) were tested on PMMA plates (1.3 mg/cm^2). After post-irradiation measure of UV absorption, exposed and unexposed plates were washed with 5 mL of methanol, then mixtures were filtered and analysed by UPLC-MS/MS. All analyses were performed in duplicates.

[2] = Solubility in cosmetic solvents / macrogol formulations; type: physicochemical; conditions: typical cosmetic solvents / formulations used
Source text: (§3) The composition of formulations and concentration of tested compounds were based on their limited solubility. N-monosubstituted compounds 2a–2e were insoluble at desirable concentrations in the typical solvents used in cosmetic formulations such as alcohols, triacetin, surfactants, and co-surfactants. To dissolve compounds 2a and 2b before incorporation to the formulation DMSO: Tween 20 (1:9 w/w) was used, for less soluble 2c–2e it was necessary to use DMSO alone as solvent. […] Thus the detailed composition of the formulations is as follows: F1–Tween 20 43.2%, PEG-400 25%, PEG-1500 25%, Triacetin 4.8%, tested compound 2%; F2–Tween 20 43.2%, PEG-400 25%, PEG-1500 25%, DMSO 4.8%, tested compound 2%; F3–PEG-400 25%, PEG-1500 25%, DMSO 48%, tested compound 2%. Considering the disadvantages of currently reported macrogol formulations and the low concentration achieved for the tested compounds (2%), we plan to work on cosmetic emulsions containing the most promising derivatives at higher concentrations as well as required excipients including preservatives, antioxidants, etc. This research will be carried out in the near future.

[3] = Ultraviolet spectroscopy in methanol solutions; type: physicochemical; conditions: for Absorption Range: scan range 290–400 nm
Experimental: Spectra with a scan range of 290–400 nm were recorded in 50 or 25 μM methanol solutions, in 1 cm path length, 1.5 mL quartz cuvettes on a U-2800 double beam spectrophotometer (Hitachi, Tokyo, Japan) controlled by UV Solution version 2.2 software. The molar extinction coefficient at maximum absorption (εmax) of tested compounds was determined in methanol as the slope of the linear regression of absorbance vs. concentration of tested compound (from 10 to 50 μM or 2.5 to 30 μM).

[4] = In vitro photoprotection study of 2% (w/w) macrogol formulations on PMMA plates
Source text: as §3
Tested compounds and commercial UV filters as reference standards were incorporated to a neutral macrogel formulation in the concentration of 2%. Prior to the incorporation, compounds 3a–3e and 4f–4h and reference UV-filters were dissolved in a triacetin:Tween 20 (1:9) solvent system. For compounds 2a–2e it was necessary to use DMSO. The final composition of the macrogol formulations is presented in the photoprotective activity section.
In vitro photoprotection study was performed according to EN ISO 24443:2012 [71] with slight modifications. Formulation with tested compound (32.5 mg) was applied on a polymethylmethacrylate plate (PMMA) with the application area 25 cm^2 and 5 µm roughness value to simulate the skin surface (Schonberg GmbH, Hamburg, Germany). As a reference a PMMA plate treated with approximately 15 µL of glycerin was used. Measurements were carried out by reflectance spectrophotometry with SPF-290AS Analyser (Solar Light Company, Glenside, PA, USA) equipped with integrating sphere controlled by WinSPF version X.X. software. For each sample two plates were prepared, absorbance measures were performed on 6 different positions of the plate from 290 to 400 nm with 1 nm steps. The results were expressed as an average of data from 12 scans.

[5] = Photostability in macrogol formulations on PMMA plates (solar light simulator); type: physicochemical
Experimental: After irradiation of thin layer of formulations applied on PMMA plates, their photoprotective parameters were determined and compared with the pre-irradiation results. The study gives an overview on functional photostability of the tested compounds. It is an important test, because the photostability of some compounds in low concentrated solutions may meaningfully differ from results obtained for higher concentrations used in sunscreen products. […] In the present study both UVB and UVA-absorbers were tested, so the changes in SPFin vitro, UVA PF and AUC after irradiation are taken into account as a measure of photostability.
as §1, §2

[6] = In vitro stability in mouse liver microsomes; type: in vitro ADME; conditions: mouse liver microsomes; for half-life at 20 µM / microsomal CLint at 20 µM: mouse; for half-life at 20 µM: pH 7.4, mouse liver microsomes 0.8 mg/mL, 20 µM compound, NADPH-regenerating system, 37 °C, read-out: t ½; for microsomal CLint at 20 µM: pH 7.4, mouse liver microsomes, calculated from t1/2
Experimental: Mouse liver microsomes (MLMs) were used to investigate the phase I metabolism of selected compounds (2c, 2d, 3b, 4g, 5a) and the reference substance BP-2. Samples composed of test compound (20 µM), MLMs (0.8 mg/mL) and potassium phosphate buffer (100 mM, pH 7.4) were preincubated prior to addition of NADPH-regenerating system. NADPH-regenerating system contained NADP, glucose-6-phosphate, glucose-6-phosphate dehydrogenase and potassium phosphate buffer (100 mM, pH 7.4). Control incubations were performed in the absence of the NADPH-regenerating system and in case of esters (2c, 2d, 3b and 4g) without the mouse liver microsomes solution to determine spontaneous hydrolysis. Incubations were conducted at 37 °C for at least 15 min up to 60 min. The reactions were stopped by the addition of 250 μL ice-cold methanol containing internal standard PTX (20 μM). The mixture was then centrifuged. Supernatant analysis was performed using UPLC/MS (Waters Corporation). The assays were repeated two times. The in vitro half times (t1/2) for test compounds were determined from the slope of the linear regression of ln % parent compound remaining versus incubation time. The calculated t1/2 was incorporated into the following equation to obtain intrinsic clearance: (Clint) = (volume of incubation [µL]/ protein in the incubation [mg]) × 0.693 / t1/2 [74].

[7] = MTT cytotoxicity, skin panel model (melanocytes); type: cell-based; conditions: Primary Epidermal Melanocytes (PCS-200-013, ATCC), human primary dermal melanocytes, highest tested concentration (50 µM), read-out: cell viability (% of control)
Experimental: Primary Epidermal Melanocytes were cultured in Dermal Cell Basal Medium (ATCC) supplemented with Adult Melanocyte Growth Kit Components (ATCC), HaCaT and BJ cells were cultured in Dulbecco’s modified Eagle’s medium (DMEM; New York, NY, USA) and supplemented with 10% fetal bovine serum (FBS; Gibco, New York, NY, USA). Cell maintenance was performed in a humidified incubator at 37 °C with 5% CO2. Cells were passage when the culture has reached approximately 80 to 90% confluence. Cells were seeded at density of 6 × 10^3 on 96-well plates. Following overnight culture, the cells were then treated with increasing doses of compounds and incubated for 24 h. Following cell exposure to each drug for 24 h, 10 µL MTT reagent (Sigma Aldrich, Darmstadt, Germany) was added to each well. After 4 hours incubation (37 °C, 5% CO2), the medium was aspirated and the formazan produced in the cells appeared as dark crystals in the bottom of the wells. Next, DMSO (dissolving solution) was added to each wells. Then the optical density (OD) of solution was determined at 570 nm on micro plate reader (Spectra iD3 Max, Molecular Devices; San Jose, CA, USA). Viability (% of control) was determined by dividing A570 of experimental wells by of A570 of control wells × 100%.

[8] = Neurocytotoxicity, MTT assay; type: cell-based; conditions: human, SH-SY5Y neuroblastoma cells, highest concentration (50 µM), read-out: cell viability (% of control)
Experimental: For […] assays a human neuroblastoma cell line—SH-SY5Y (CRL-2266™, ATCC) and a human hepatocellular carcinoma cell line–HepG2, respectively have been used. Cells were seeded on 96-well plates at an initial density of 10,000 cells per well. Cells were cultured in standard conditions for 24 h and then study compounds were administrated at different concentrations (10–50 μM) for another 24 h. After incubation time cells viability was measured with MTT assay. For this purpose culture medium has been replaced for the fresh one and MTT reagent (3-(4,5-dimethylthiazol-2-yl)-2,5-diphenyltetrazolium bromide) has been added at the concentration 0.5 mg/mL. Cells were incubated with MTT reagent at 37 °C for 4 h. Then formazan crystals have been dissolved in DMSO solution and the absorbance has been measured at 570 nm. Experiments were conducted in triplicates. Values represent mean percent of viability (in the percent of control).

[9] = 2% (w/w) macrogol formulation F2 (DMSO 4.8%)
[10] = after 1 h irradiation at 500 W/m^2, formulation F2 (DMSO 4.8%)
[11] = after 1 h irradiation at 500 W/m^2, formulation F3 (DMSO 48%)
[12] = 2% (w/w) macrogol formulation F3 (DMSO 48%)
[13] = 2% (w/w) macrogol formulation F1 (Triacetin 4.8%)
[14] = after 1 h irradiation at 500 W/m^2, formulation F1

λmax pre-irradiation [1] | % of initial AUC post-irradiation [1] [%] | λmax post-irradiation [1] | εmax [3] [M⁻¹ cm⁻¹] | λmax [3] [nm] | Absorption Range [3] | melting point [°C] | % of Initial AUC [5, 11] [%] | % of Initial SPFin vitro [5, 11] [%] | % of Initial UVA PF [5, 11] [%] | Probable Transformation [6] | half-life at 20 µM [6] [min] | microsomal CLint at 20 µM [6] [µL/min/mg] | SMILES | SPFin vitro [4, 12] | UVA PF [4, 12] | UVA/UVB Ratio [4, 12] | λc (critical wavelength) [4, 12] [nm] | further results
344 | 97.8 | 351 | 30740 | 344 | 290–381 nm | 198 to 200 | 41.99 | 56.00 | 38.99 | O-dealkylation | 41 | 21 | CCOC(=O)CN1C(=O)N/C(=C\c2ccc(OC)c(OC)c2)C1=O [Compound 2e, Ethyl (Z)-2-(4-(3,4-dimethoxybenzylidene)-2,5-dioxoimidazolidin-1-yl)acetate] | 2.50 ± 0.08 | 4.77 ± 0.24 | 1.95 ± 0.02 | 379 | 
299 | 87.76 | 303 | 25550 | 299 | 290–332 nm |  |  |  |  |  |  |  | Cc1ccc(/C=C2/C(=O)C3(C)CCC2C3(C)C)cc1 (centres unmarked) [Compound 4-MBC, 4-methylbenzylidene camphor, reference compound] |  |  |  |  | viability at 24 h, 50 µM [7]: < 36%; UVA PF [4, 13]: 1.08 ± 0.1; UVA/UVB Ratio [4, 13]: 0.00 ± 0.00; λc (critical wavelength) [4, 13]: 316 nm; SPFin vitro ([4]; 2% (w/w) macrogol formulation F1 (Tween 20, PEG-400, PEG-1500, Triacetin 4.8%)): 5.59 ± 0.27; viability at 24 h, 50 µM [8]: < 31%; % of Initial AUC [5, 14]: 90.89%; % of Initial SPFin vitro [5, 14]: 91.05%; % of Initial UVA PF [5, 14]: 101.39%

More lines, now with the values behind:

SMILES | λmax pre-irradiation [1] | % of initial AUC post-irradiation [1] [%] | λmax post-irradiation [1] | εmax [3] [M⁻¹ cm⁻¹] | λmax [3] [nm] | Absorption Range [3] | melting point [°C] | % of Initial AUC [5, 11] [%] | % of Initial SPFin vitro [5, 11] [%] | % of Initial UVA PF [5, 11] [%] | Probable Transformation [6] | half-life at 20 µM [6] [min] | microsomal CLint at 20 µM [6] [µL/min/mg] | SPFin vitro [4, 12] | UVA PF [4, 12] | UVA/UVB Ratio [4, 12] | λc (critical wavelength) [4, 12] [nm] | further results
CCOC(=O)CN1C(=O)N/C(=C\c2ccccc2)C1=O [Compound 2a, Ethyl (Z)-2-(4-benzylidene-2,5-dioxoimidazolidin-1-yl)acetate] | 316 | 70.45 | 317 | 28460 | 316 | 290–345 nm | 169 to 171 | 46.72 | 33.25 | 37.87 |  |  |  |  |  |  |  | decrease of AUC after irradiation [1]: ~30%; shift of λmax after irradiation [1]: 1 nm; solubility (in words) [2]: only slightly soluble; SPFin vitro [4, 9]: 4.79 ± 0.02; UVA PF [4, 9]: 2.40 ± 0.01; UVA/UVB Ratio [4, 9]: 0.35 ± 0.00; λc (critical wavelength) [4, 9]: 339 nm; improvement of the functional photostability ([5]; DMSO in formulation reduced from 48 to 4.8%): 31.1%; % of Initial AUC [5, 10]: 62.42%; % of Initial SPFin vitro [5, 10]: 55.49%; % of Initial UVA PF [5, 10]: 68.96%; percentage of photoisomer formation ([5]; two formulations differing in the content of DMSO (48 and 4.8%), which value belongs to which is not given): 48%
CCOC(=O)CN1C(=O)N/C(=C\c2ccc(OCC)cc2)C1=O [Compound 2c, Ethyl (Z)-2-(4-(4-ethoxybenzylidene)-2,5-dioxoimidazolidin-1-yl)acetate] | 336 | 96.89 | 344 | 35610 | 336 | 290–376 nm | 181 to 182 | 34.13 | 44.37 | 35.83 | O-dealkylation | 33 | 52 | 3.16 ± 0.05 | 4.68 ± 0.02 | 1.36 ± 0.01 | 367 | 
CCOC(=O)CN1C(=O)N/C(=C\c2ccc(OC)cc2OC)C1=O [Compound 2d, Ethyl (Z)-2-(4-(2,4-dimethoxybenzylidene)-2,5-dioxoimidazolidin-1-yl)acetate] | 349 | 100.96 | 354 | 30700 | 349 | 290–394 nm | 197 to 198 | 58.87 | 75.69 | 51.45 | O-dealkylation | 15 | 59 | 2.00 ± 0.11 | 4.48 ± 0.38 | 2.59 ± 0.09 | 386 | decrease of tested parameters (SPFin vitro, UVA PF, AUC) after irradiation ([5]; formulation with DMSO 48% (F3), extreme values): 41.1%
